Data taken from US20240262842A1, “SMALL MOLECULE INHIBITORS OF KRAS G12C MUTANT” (Merck Sharp & Dohme LLC, priority 2021, published 2024).
Where two headings read alike, the source gives them in different places.

How the values were obtained:
[1] = target: T1, interaction between GMPPNP-bound recombinant K-Ras4B G12C mutant protein and cRAF RAS-binding domain (cRAF-RBD) (Homo sapiens, UniProt P01116, G12C); test: Inhibitory activity on interaction between KRAS G12C and cRAF (Alpha technology)
T1 construct: His-tag (N)
T1 sequence (P01116 with tags, fused parts or gaps isoform P01116-2 G12C): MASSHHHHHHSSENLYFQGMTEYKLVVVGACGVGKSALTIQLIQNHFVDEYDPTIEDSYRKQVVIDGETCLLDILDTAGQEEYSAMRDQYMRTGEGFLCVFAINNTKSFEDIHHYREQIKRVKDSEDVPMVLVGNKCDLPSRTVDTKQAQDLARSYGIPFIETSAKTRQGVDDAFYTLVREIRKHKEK
In short: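 Alpha signal measured 1.5 h after adding cRAF-RBD (aa 50-132) and detection reagents to GMPPNP-bound KRAS G12C (aa 1-169) pretreated 1 h at 25° C with compound (pH 7.5 buffer). 0% inhibition = DMSO, 100% = GDP-loaded KRAS; IC50 by curve fit.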

[2] = system: MIA PaCa-2 cells; test: Growth inhibition activity on KRAS-G12C mutant cell line (CellTiter-Glo 3D); type: cell-based, human; settings: MIA PaCa-2, 3-day culture with compound
In short: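 IC50 (nM) derived from inhibition of luminescence (CellTiter-Glo 3D) relative to compound-free wells. Cells were seeded in U-bottom plates, grown 1 day, then exposed to compound for 3 days at 37 °C with 0.2% final DMSO.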

[3] = IC50, GMPPNP-bound KRAS G12C incubated with compound 25° C. 1 hour, Table 2
[4] = Homo sapiens, MIA PaCa-2, 72 h, Table 3
[5] = GMPPNP-bound KRAS G12C incubated with compound 25° C. 1 hour, Table 2, read-out: IC50
[6] = GMPPNP-bound KRAS G12C incubated with compound 25° C. 1 hour, Table 2-1, read-out: IC50
[7] = Homo sapiens, MIA PaCa-2, 72 h, Table 3-1

Compound | IC50 [2, 4] | IC50 [1, 5] | further results
CO[C@H]1CC[C@H](NC/C=C/C(=O)Nc2c(F)cc(C(=O)c3cn4c5c(cccc35)-c3c(C(F)(F)F)cc5c(nc(C)n5C)c3CCC4)cc2F)CC1 [Example 28, (E)-N-(4-(8,9-dimethyl-6-(trifluoromethyl)-8,11,12,13-tetrahydroimidazo[4″,5″:3′,4′]benzo[1′,2:4,5]azocino[3,2,1-hi]indole-2-carbonyl)-2,6-difluorophenyl)-4-(((1r,4r)-4-methoxycyclohexyl)amino)but-2-enamide] | 17 nM | – | IC50 [1, 3]: 53 nM
CO[C@H]1CC[C@H](NC/C=C/C(=O)Nc2c(F)cc(C(=O)c3cn4c5c(cccc35)-c3c(C(F)(F)F)cc5c(nc(C)n5C)c3CCCC4)cc2F)CC1 [Example 29, (E)-N-(4-(8,9-dimethy 1-6-(trifluoromethyl)-11,12,13,14-tetrahydro-8H-imidazo[4″,5″:3′,4′]benzo[1′,2:4,5]azonino[3,2,1-hi]indole-2-carbonyl)-2,6-difluorophenyl)-4-(((1r,4r)-4-methoxycyclohexyl)amino)but-2-enamide] | 53 nM | – | IC50 [1, 3]: 220 nM
CO[C@H]1CC[C@H](NC/C=C/C(=O)Nc2c(F)cc(C(=O)c3cc4c5c(cccn35)-c3c(C)cc5c(nc(C)n5C)c3OCC4)cc2F)CC1 [Example 32, (E)-N-(2,6-difluoro-4-(7,9,10-trimethyl-13,14-dihydro-9H-imidazo[4″,5″:5′,6]benzo[1′,2′:2,3]oxocino[4,5,6-hi]indolizine-2-carbonyl)phenyl)-4-(((1,4r)-4-methoxycyclohexyl)amino)but-2-enamide] | 86 nM | 27 nM | –
Cc1nc2c3c(c(C(F)(F)F)cc2n1C)-c1cccn2c(C(=O)c4cc(F)c(NC(=O)/C=C/CNC(C)(C)C)c(F)c4)cc(c12)CCO3 [Example 33] | 5 nM | 14 nM | –
Cc1nc2c3c(c(C(F)(F)F)cc2n1C)-c1cccn2c(C(=O)c4cc(F)c(NC(=O)/C=C/CNC5CCOCC5)c(F)c4)cc(c12)CCO3 [Example 34] | 7 nM | 12 nM | –
Cc1nc2c3c(c(C(F)(F)F)cc2n1C)-c1cccn2c(C(=O)c4cc(F)c(NC(=O)/C=C/CNC5(C)CC5)c(F)c4)cc(c12)CCO3 [Example 35] | 14 nM | 13 nM | –
Cc1nc2c3c(c(C(F)(F)F)cc2n1C)-c1cccn2c(C(=O)c4cc(F)c(NC(=O)/C=C/CNC5CCP(C)(=O)CC5)c(F)c4)cc(c12)CCO3 (stereo not shown) [Example 36] | 150 nM | 13 nM | –
CO[C@H]1CC[C@H](NC/C=C/C(=O)Nc2ccc(C(=O)c3cc4c5c(cccn35)-c3c(C(F)(F)F)cc5c(nc(C)n5C)c3OCC4)cc2)CC1 [Example 37, (E)-N-(4-(9,10-dimethyl-7-(trifluoromethyl)-13,14-dihydro-9H-imidazo[4″,5″:5′,6′]benzo[1′,2′:2,3]oxocino[4,5,6-hi]indolizine-2-carbonyl)phenyl)-4-(((1,4r)-4-methoxycyclohexyl)amino)but-2-enamide] | 28 nM | 40 nM | –
Cc1nc2c3c(c(C(F)(F)F)cc2n1C)-c1cccn2c(C(=O)c4cc(F)c(NC(=O)/C=C/CNC5(C)CCOCC5)c(F)c4)cc(c12)CCO3 [Example 39] | 12 nM | 8 nM | –
Cc1nc2c3c(c(C(F)(F)F)cc2n1C)-c1cccn2c(C(=O)c4cc(F)c(NC(=O)/C=C/CNC5(C(=O)O)CCCCC5)c(F)c4)cc(c12)CCO3 [Example 40] | 1600 nM | 4700 nM | –
Cc1nc2c3c(c(C(F)(F)F)cc2n1C)-c1cccn2c(C(=O)c4cc(F)c(NC(=O)/C=C/CNC5(C)CCOC5)c(F)c4)cc(c12)CCO3 (stereo not shown) [Example 41] | 4 nM | 10 nM | –
CO[C@H]1CC[C@H](NC/C=C/C(=O)Nc2c(F)cc(C(=O)c3cc4c5c(cccn35)-c3c(C(F)(F)F)cc5c(nc(C)n5C)c3OC(C)C4)cc2F)CC1 (stereo partly shown) [Example 42, (E)-N-(2,6-difluoro-4-(9,10,13-trimethyl-7-(trifluoromethyl)-13,14-dihydro-9H-imidazo[4″,5″:5′,6′]benzo[1′,2′:2,3]oxocino[4,5,6-hi]indolizine-2-carbonyl)phenyl)-4-(((1r,4r)-4-methoxycyclohexyl)amino)but-2-enamide] | 9 nM | 18 nM | –
CO[C@H]1CC[C@H](NC/C=C/C(=O)Nc2c(F)cc(C(=O)c3cc4c5c(cccn35)-c3c(C(F)(F)F)cc5c(nc(C)n5C)c3OC(C)C4)cc2F)CC1 (stereo partly shown) [Example 43, (E)-N-(2,6-difluoro-4-(9,10,13-trimethyl-7-(trifluoromethyl)-13,14-dihydro-9H-imidazo[4″,5″:5′,6′]benzo[1′,2′:2,3]oxocino[4,5,6-hi]indolizine-2-carbonyl)phenyl)-4-(((1r,4r)-4-methoxycyclohexyl)amino)but-2-enamide] | – | 17 nM | IC50 ([2]; Table 3): 14 nM
CO[C@H]1CC[C@H](NC/C=C/C(=O)Nc2c(F)cc(C(=O)c3cn4c5c(cccc35)-c3c(C)cc5c(nc(C)n5C)c3N(C)CC4)cc2F)CC1 [Example 44] | 10 nM | – | IC50 [1, 3]: 30 nM
CO[C@H]1CC[C@H](NC/C=C/C(=O)Nc2c(F)cc(C(=O)c3cn4c5c(cccc35)-c3c(C(F)(F)F)cc5c(nc(C)n5C)c3N(C)CC4)cc2F)CC1 [Example 45, (E)-N-(2,6-difluoro-4-(8,9,11-trimethyl-6-(trifluoromethyl)-8,11,12,13-tetrahydroimidazo[4′ 5,6][1,4]diazocino[7,8,1-hi]indole-2-carbonyl)phenyl)-4-(((1,4r)-4-methoxycyclohexyl)amino)but-2-enamide] | 5 nM | – | IC50 [1, 3]: 21 nM
CO[C@H]1CC[C@H](NC/C=C/C(=O)Nc2c(F)cc(C(=O)c3nn4c5c(cccc35)-c3c(C(F)(F)F)cc5c(nc(C)n5C)c3OCC4)cc2F)CC1 [Example 46, (E)-N-(4-(8,9-dimethyl-6-(trifluoromethyl)-12,13-dihydro-8H-imidazo[4″,5″:3′4′]benzo[1′,2′:7,8][1,4]oxazocino[6,5,4-hi]indazole-2-carbonyl)-2,6-difluorophenyl)-4-(((1r,4r)-4-methoxycyclohexyl)amino)but-2-enamide] | 57 nM | 140 nM | –
CO[C@H]1CC[C@H](NC/C=C/C(=O)Nc2c(F)cc(C(=O)c3cn4c5c(cccc35)-c3c(C)cc5c(nc(C)n5C)c3N(C)C(=O)C4)cc2F)CC1 [Example 47, (E)-N-(2,6-difluoro-4-(6,8,9,11-tetramethyl-12-oxo-8,11,12,13-tetrahydroimidazo[4″,5″:5′,6′]benzo[1′,2′:5,6][1,4]diazocino[7,8,1-hi]indole-2-carbonyl)phenyl)-4-(((1r,4r)-4-methoxycyclohexyl)amino)but-2-enamide] | 59 nM | – | IC50 [1, 3]: 23 nM
CO[C@H]1CC[C@H](NC/C=C/C(=O)Nc2c(F)cc(C(=O)c3cn4c5c(cccc35)-c3c(C(F)(F)F)ccc(=O)n3CCC4)cc2F)CC1 [Example 49, (E)-N-(2,6-difluoro-4-(8-oxo-11-(trifluoromethyl)-5,6-dihydro-4H,8H-pyrido[2′,1′:4,5][1,5]diazocino[3,2,1-hi]indole-1-carbonyl)phenyl-4-((1r,4r)-4-methoxycyclohexyl)amino)but-2-enamide] | 150 nM | – | IC50 [1, 3]: 260 nM
Cc1nc2c3c(c(C(F)(F)F)cc2n1C)-c1cccn2c(C(=O)c4cc(F)c(NC(=O)/C=C/CNC5COC5)c(F)c4)cc(c12)CCO3 [Example 51, (E)-N-(4-(9,10-dimethyl-7-(trifluoromethyl)-13,14-dihydro-9H-imidazo-[4″,5″:5′,6′]benzo[1′,2′: 2,3]oxocino[4,5,6-hi]-indolizine-2-carbonyl)-2,6-difluorophenyl)-4-(oxetan-3-ylamino)but-2-enamide] | – | – | IC50 [1, 6]: 45.4 nM; IC50 [2, 7]: 15.9 nM
CO[C@H]1CC[C@H](NC/C=C/C(=O)Nc2c(F)cc(C(=O)c3cc4c5c(cccn35)-c3c(Cl)cc5c(nc(C)n5C)c3OCC4)cc2F)CC1 [Example 53] | – | – | IC50 [1, 6]: 22.2 nM; IC50 [2, 7]: 31.9 nM
Cc1nc2c3c(c(C(F)(F)F)cc2n1C)-c1cccn2c(C(=O)c4cc(F)c(NC(=O)/C=C/CNC(C)(C)CF)c(F)c4)cc(c12)CCO3 [Example 56] | – | – | IC50 [1, 6]: 12.4 nM; IC50 [2, 7]: 12.6 nM
Cc1cc2c(nc(C)n2C)c2c1-c1cccn3c(C(=O)c4cc(F)c(NC(=O)/C=C/CNC5(C)CCOCC5)c(F)c4)cc(c13)CCN2C [Example 57, (E)-N-(2,6-difluoro-4-(7,9,10,12-tetramethyl-9,12,13,14-tetrahydro-imidazo[4″,5″:5′,6′]benzo-[1′,2′:2,3]azocino[4,5,6-hi]indolizine-2-carbonyl)-phenyl)-4-((4-methyltetra-hydro-2H-pyran-4-yl)-amino)but-2-enamide] | – | – | IC50 [1, 6]: 78.3 nM; IC50 [2, 7]: 68.5 nM
Cc1c2c3c(cccn3c1C(=O)c1cc(F)c(NC(=O)/C=C/CNC3(C)COC3)c(F)c1)-c1c(C(F)(F)F)cc3c(nc(C)n3C)c1OCC2 [Example 58, (E)-N-(2,6-difluoro-4-(1,9,10-trimethyl-7-(tri-fluoromethyl)-13,14-dihydro-9H-imidazo-[4″,5″:5′,6′]benzo[1′,2′: 2,3]oxocino[4,5,6-hi]-indolizine-2-carbonyl)-phenyl)-4-((3-methyl-oxetan-3-yl)amino)but-2-enamide] | – | – | IC50 [1, 6]: 77.9 nM; IC50 [2, 7]: 70.2 nM
